≈ marks a conversion by molar mass, not a printed value.
System: E. coli strain isolated from a patient with a urinary tract infection
Test: microbe, parasite or virus in culture
Details: Escherichia coli, read-out: minimum inhibitory concentration

MIC: 64 µg/mL (≈ 269 µM)
SMILES: O=C1CN(/N=C/c2ccc([N+](=O)[O-])o2)C(=O)N1 [nit, Nitrofurantoin]

From patent US11168347B2, “Digital quantification of DNA replication and/or chromosome segregation based determination of antimicrobial susceptibility” (CALIFORNIA INSTITUTE OF TECHNOLOGY, priority 2016, dated 2021)
